Experiment: Crystal form stability on storage (no transformation to other forms)
Format: physicochemical
Settings: 40° C./75% RH; samples packaged in inner double-layered LDPE bags and an outer aluminum foil composite film bag

## trisodium AHU-377 and Valsartan co-crystal hydrate Form II
  Crystalline form stability (transformation to other forms): will not transform to other forms
